Test system: cGMP-PDE I
Assay: cGMP-PDE I inhibitory activity (cyclic nucleotide hydrolysis, isolated PDE isozyme)
Type: biochemical, various animal species and man
Details: for IC50: values marked * are from two separate experimental runs
Procedure: Multiple isozymic forms of cyclic nucleotide phosphodiesterase (PDE) have been identified in mammalian cells. […] Elevation of intracellular cGMP in vascular smooth muscle triggers a cascade of events that leads to a reduction in muscle tone while elevations in renal tubule cell cGMP stimulates natriuresis and diuresis. Vascular smooth muscle and renal cells contain a phosphodiesterase isozyme that has a low Km (1 μM) for the hydrolysis of cGMP. This isozyme has been referred to as the cGMP-PDE or cGMP-PDE I since it elutes from an anion-exchange sepharose resin in the first peak of PDE activity at a sodium acetate concentration between 150-200 mM. Thus inhibition of the cGMP-PDE isozyme is a viable subcellular mechanism by which increases in cGMP can produce a reduction in total peripheral resistance and a stimulation of natriuresis and diuresis. The development of cGMP-PDE inhibitors represents an approach for the discovery of agents useful for treating heart failure and hypertension. For example, compounds having high inhibitory potency for the cGMP-PDE are expected to lower blood pressure and induce natriuresis and diuresis.
The cGMP-PDE and other PDE isozymes were isolated from cardiovascular tissues (heart and aorta) of various animal species and man by anion-exchange and affinity chromatography as described by Silver et al., Sec. Messeng. Phos. 13:13-25, 1991; PDE activity, in the presence and absence of test compounds was determined essentially as described by Thompson et al., Adv. Cyclic Nucleotide Res. 10:69-92. To determine the potency and selectivity of compounds as PDE inhibitors, compounds are screened for their effect on cyclic nucleotide hydrolysis at 10 μM. If ≥50% inhibition of PDE activity is observed, an IC50 value (concentration of compound causing 50% reduction in PDE activity) and corresponding 95% confidence intervals are generated. The IC50 values are calculated from concentration-response curves as described by Tallarida and Murray, Manual of Pharmacologic Calculations with Computer Programs, Procedure 8, Graded Dose-response, pp. 14-19, Springer-Verlag, N.Y., 1981.

Row | SMILES | IC50 | Percent Inhibition cGMP-PDE I (1 μM) | Percent Inhibition cGMP-PDE I (10 μM) | other results
1 | O=c1[nH]c(-c2ccncc2)nc2c1c(Cl)nn2C1CCCC1 [Example 72] | 1150 nM |  |  | 
2 | CCc1[nH]n(C2CCCC2)c2nc(-c3ccncc3OC3CCC3)nc(=O)c1-2 [Example 130B, 1-Cyclopentyl-3-ethyl-6-(3-cyclobutyloxy-4-pyridyl)pyrazolo[3,4-d]pyrimidin-4-one] |  |  |  | Percent Inhibition cGMP-PDE I (0.01 μM): 91%
3 | CCCCCCCCn1nc(C)c2c(=O)[nH]c(-c3ccncc3)nc21 [Example 88] |  | 32% |  | 
4 | CCc1[nH]n(C2CCCC2)c2nc(C3CCNC4CCCCC43)nc(=O)c1-2 (stereo not drawn) [Example 8, 1-Cyclopentyl-3-ethyl-6-(perhydro-4-quinolinyl)-pyrazolo[3,4-d]pyrimidin-4-one] |  | 31% | 67% | 
5 | Cc1[nH]n(C2CCCC2C)c2nc(-c3ccncc3)nc(=O)c1-2 (stereo not drawn) [Example 1e, 1-(2-Methylcyclopentyl)-3-methyl-6-(4-pyridyl)pyrazolo [3,4-d]pyrimidin-4-one] |  | 59% |  | Percent Inhibition cGMP-PDE I (0.1 μM): 23%
6 | Cc1[nH]n(Cc2cc([N+](=O)[O-])ccc2Cl)c2nc(-c3ccncc3)nc(=O)c1-2 [Example 106, 1-(2-Chloro-5-nitrophenylmethyl)-3-methyl-6-(4-pyridyl)pyrazolo[3,4-d]pyrimidin-4-one] |  | 24% | 63% | 
7 | Cc1[nH]n(C2CCC2)c2nc(-c3ccncc3)nc(=O)c1-2 [Example 102, 1-Cyclobutyl-3-methyl-6-(4-pyridyl)-pyrazolo-[3,4-d]pyrimidin-4-one] | 1900 nM |  |  | 
8 | O=c1[nH]c(-c2ccncc2)nc2c1c([N+](=O)[O-])nn2C1CCCC1 [Example 74] |  | 0% | 32% | 
9 | CCc1nn(C2CCCC2)c2nc(C3CCN(C)c4ccccc43)[nH]c(=O)c12 (stereo not drawn) [Example 10b, 1-cyclopentyl-3-ethyl-6-(1,2,3,4-tetrahydro-4-N-methyl-quinolinyl)-pyrazolo-[3,4-d]pyrimidin-4-one] |  | 62% |  | Percent Inhibition cGMP-PDE I (0.1 μM): 24%
10 | Cc1nn(CCCCCC(=O)O)c2nc(-c3ccncc3)[nH]c(=O)c12 [Example 80] | 2700 nM |  |  | 
11 | COc1cnccc1-c1nc2n(C3CCCC3)[nH]c(C(F)(F)F)c-2c(=O)n1 [Example 135, 1-Cyclopentyl-3-trifluoromethyl-6-(3-methoxy-4-pyridyl)pyrazolo[3,4-d]pyrimidin-4-one] |  | 88% |  | Percent Inhibition cGMP-PDE I (0.01 μM): 36%; Percent Inhibition cGMP-PDE I (0.1 μM): 68%
12 | CCc1[nH]n(C2CCCC2)c2nc(-n3ccnc3)nc(=O)c1-2 [Example 122d, 1-Cyclopentyl-3-ethyl-6-(1-imidazolyl)pyrazolo[3,4-d]pyrimidin-4-one] |  | 16% | 46% | 
13 | CC(C)(C)n1ncc2c(=O)[nH]c(-c3ccncc3)nc21 [Example 92] | 680 nM |  |  | 
14 | Cc1n[nH]c2nc(-c3ccncc3)[nH]c(=O)c12 [Example 76] |  | 0% | 24% | 
15 | Cc1[nH]n(Cc2cccc(C(=O)O)c2)c2nc(-c3ccncc3)nc(=O)c1-2 [Example 112, 1-(3-Carboxyphenylmethyl)-3-methyl-6-(4-pyridyl)-pyrazolo[3,4-d]pyrimidin-4-one] |  | 4% | 52% | 
16 | CCc1[nH]n(C2CCCC2)c2nc(C3CCNc4ccccc43)nc(=O)c1-2 (stereo not drawn) [Example 9, 1-Cyclopentyl-3-ethyl-6-(1,2,3,4-tetrahydro-4-quinolinyl)-pyrazolo[3,4-d]pyrimidin-4-one] | 280 nM |  |  | 
17 | CC(C)(C)n1[nH]c(CC2CCCCC2)c2c(=O)nc(-c3ccncc3)nc1-2 [Example 5e, 1-tert-Butyl-3-(cyclohexylmethyl)-6-(4-pyridyl)-pyrazolo[3,4-d]pyrimidin-4-one] | 260 nM |  |  | 

Source: patent US5541187A, “6-heterocycyclyl pyrazolo[3,4-d]pyrimidin-4-ones and compositions and method of use thereof” (Sterling Winthrop Inc., priority 1993, dated 1996)
